Laboratory results reported in patent US20020119136A1, “Antimicrobial peroxidase compositions” (Novozymes A/S, priority 1996, published 2002).

What was measured:
[1] = system: Pseudomonas aeruginosa ATCC 10146; test: Antibacterial activity of rCIP and KI against P. aeruginosa (Malthus, 2^3 factorial design); type: cell-based; details: components present at rCIP 0.5 POXU/ml, H2O2 0.5 mM, KI 0.5 mM; 15 min, 40 C, pH 6.0; approx 10^7 cfu/ml; untreated 1.7*10^7
Method: (§1) The antibacterial activity of rCIP was tested in phosphate buffer (pH 6.0) against Pseudomonas aeruginosa ATCC 10146 and Staphylococcus aureus ATCC 25923 with potassium iodide as electron donor, and hydrogen peroxide was added as electron acceptor. The cells (approximately 10^7 cfu/ml) were incubated with enzyme for 15 min at 40?C., and the experiment was carried out using a 2^3 factorial design reproduced two times. The bactericidal activity was determined by incubation in Malthus.

[2] = system: Staphylococcus aureus ATCC 25923; test: Antibacterial activity of rCIP and KI against S. aureus (Malthus, 2^3 factorial design); type: cell-based; details: components present at rCIP 0.5 POXU/ml, H2O2 0.5 mM, KI 0.5 mM; 15 min, 40 C, pH 6.0; untreated 2.9*10^8
Method: as §1

P. fluorescens = details: rCIP 3 POXU/ml, enhancing agent 5 mM, 15 min, pH 6.0, 40 C; for bactericidal activity of rCIP with the enhancing agent: glucose oxidase/glucose or 5 mM H2O2, 10^4 cfu/ml
Method: In order to avoid interference with substrate components, the experiment was carried out in a buffer instead of in a growth substrate.
The bactericidal activity was determined by plate counting and by incubation in Malthus. The detection times measured by the Malthus instrument were converted to cfu/ml by a standard curve.
Indirect Malthus measurements were used when enumerating total survival cells (Malthus Flexi M2060, Malthus Instrument Limited). 3 ml of growth medium was transferred to the outer chamber of the indirect Malthus cells, and 0.5 ml of sterile KOH (0.1 M) was transferred to the inner chamber. The cell suspensions were after enzyme treatment transferred to the outer chamber of the Malthus cell. As cells are growing in the outer chamber they produce CO2 which will dissolve in the KOH in the inner chamber and thereby change the conductance of the KOH. The amount of CO2 formed by the respiring cells surviving the enzyme treatment was used for estimating the number of viable cells. When the conductance change is measurable by the Malthus, a detection time (dt) will be recorded. The dt's were converted to colony counts by use of a calibration curve relating cfu/ml to dt (FIG. 1).

| Molecule | survivors [1] | survivors [2] | bactericidal activity of rCIP with the enhancing agent (P. fluorescens) | bactericidal activity (P. fluorescens; H2O2 source, by plate counts and Malthus) |
| --- | --- | --- | --- | --- |
| OO [H2O2, hydrogen peroxide] | 1.2*10^7 cfu/ml | 1.3*10^8 cfu/ml | – | – |
| O=C(O)CCN1c2ccccc2Sc2ccccc21 [PPT, 10-phenothiazine propionic acid] | – | – | slight bactericidal activity | – |
| N#C[S-].[Na+] [NaSCN, sodium thiocyanate] | – | – | statistical significant bactericidal activity | – |
| [I-].[K+] [KI, potassium iodide] | 2.1*10^7 cfu/ml | 2.0*10^8 cfu/ml | statistical significant bactericidal activity | 100% |
| rCIP: Coprinus cinereus, IFO 8371, recombinant peroxidase (rCIP) available from Novo Nordisk A/S (protein, UniProt P28314 21-363, looked up) Peroxidase: QGPGGGGSVTCPGGQSTSNSQCCVWFDVLDDLQTNFYQGSKCESPVRKILRIVFHDAIGFSPALTAAGQFGGGGADGSIIAHSNIELAFPANGGLTDTVEALRAVGINHGVSFGDLIQFATAVGMSNCPGSPRLEFLTGRSNSSQPSPPSLIPGPGNTVTAILDRMGDAGFSPDEVVDLLAAHSLASQEGLNSAIFRSPLDSTPQVFDTQFYIETLLKGTTQPGPSLGFAEELSPFPGEFRMRSDALLARDSRTACRWQSMTSSNEVMGQRYRAAMAKMSVLGFDRNALTDCSDVIPSAVSNNAAPVIPGGLTVDDIEVSCPSEPFPEIATASGPLPSLAPAP | 2.6*10^7 cfu/ml | 1.6*10^8 cfu/ml | – | – |
